Laboratory results as given in the supplement of paper PMC6045584.
± gives the standard deviation of the averaged measurements.

Legend:
[1] = compound: Cn1nnc2c(C(N)=O)ncn2c1=O [TEMOZOLOMIDE]; test: surviving fraction relative to DMSO-only wells; higher = less growth inhibition; conditions: exposure time: 5 days
How it was run: (§1)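 Surviving fraction is CellTiter-Glo luminescence divided by the median of wells given DMSO only. For this, log-phase tumour cell lines went into 384-well plates at 250–500 cells per well and, 24 hours later, into five days of continuous inhibitor exposure at 0.5, 1, 5, 10, 50, 100, 500 and 1000 nM. Lines were screened three times and retained only if replicate Pearson r >0.7 and median Z' >0.3.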

[2] = compound: NS(=O)(=O)OC[C@@H]1C[C@@H](n2ccc3c(N[C@H]4CCc5ccccc54)ncnc32)C[C@@H]1O [MLN-4924]; test: as above; conditions: exposure time: 5 days
How it was run: as §1

| Test System | surviving fraction ([1]; 0.5 nM) | surviving fraction ([1]; 1 nM) | surviving fraction ([1]; 5 nM) | surviving fraction ([1]; 10 nM) | surviving fraction ([1]; 50 nM) | surviving fraction ([1]; 100 nM) | surviving fraction ([1]; 500 nM) | surviving fraction ([1]; 1000 nM) | surviving fraction ([2]; 0.5 nM) | surviving fraction ([2]; 1 nM) | surviving fraction ([2]; 5 nM) | surviving fraction ([2]; 10 nM) | surviving fraction ([2]; 50 nM) | surviving fraction ([2]; 100 nM) | surviving fraction ([2]; 500 nM) | surviving fraction ([2]; 1000 nM) |
| --- | --- | --- | --- | --- | --- | --- | --- | --- | --- | --- | --- | --- | --- | --- | --- | --- |
| LM7 BONE | 0.916 ± 0.081 | 0.989 ± 0.086 | 1.04 ± 0.085 | 1.05 ± 0.049 | 1.05 ± 0.077 | 1.09 ± 0.022 | 0.968 ± 0.065 | 0.967 ± 0.04 | 0.919 ± 0.081 | 1.02 ± 0.026 | 1.09 ± 0.059 | 0.946 ± 0.034 | 0.486 ± 0.033 | 0.256 ± 0.026 | 0.1 ± 0.02 | 0.1 ± 0.0098 |
| MFM223 BREAST | 1.46 ± 0.65 | 1.38 ± 0.44 | 1.5 ± 0.54 | 1.49 ± 0.63 | 1.38 ± 0.52 | 1.19 ± 0.07 | 1.38 ± 0.48 | 1.17 ± 0.08 | 1.43 ± 0.45 | 1.47 ± 0.56 | 1.33 ± 0.39 | 1.16 ± 0.56 | 0.586 ± 0.066 | 0.42 ± 0.032 | 0.181 ± 0.022 | 0.152 ± 0.062 |
| MDAMB453 BREAST | 1.07 ± 0.015 | 1.097 ± 0.0087 | 1.13 ± 0.016 | 1.1 ± 0.076 | 1.14 ± 0.058 | 1.09 ± 0.11 | 1.07 ± 0.075 | 1.09 ± 0.056 | 1.1 ± 0.038 | 1.08 ± 0.056 | 1.07 ± 0.07 | 1.1 ± 0.066 | 0.589 ± 0.019 | 0.493 ± 0.034 | 0.363 ± 0.045 | 0.304 ± 0.017 |
| JIMT1 BREAST | 1 ± 0.022 | 1.03 ± 0.032 | 1.021 ± 0.0081 | 1.07 ± 0.07 | 1 ± 0.022 | 1.04 ± 0.038 | 1.01 ± 0.025 | 1.06 ± 0.065 | 1.06 ± 0.04 | 1.016 ± 0.0069 | 1.06 ± 0.019 | 1.06 ± 0.017 | 1.09 ± 0.056 | 1.06 ± 0.062 | 0.764 ± 0.046 | 0.539 ± 0.073 |
| NOS1 BONE | 0.881 ± 0.071 | 1.01 ± 0.077 | 1.16 ± 0.11 | 1.16 ± 0.049 | 1.25 ± 0.099 | 1.15 ± 0.067 | 1.01 ± 0.076 | 1.06 ± 0.14 | 0.988 ± 0.11 | 1.02 ± 0.11 | 1.23 ± 0.23 | 1.29 ± 0.21 | 1.22 ± 0.1 | 1.04 ± 0.14 | 0.637 ± 0.083 | 0.506 ± 0.033 |
| HOSMNG BONE | 0.835 ± 0.15 | 0.927 ± 0.11 | 0.795 ± 0.051 | 0.89 ± 0.03 | 0.938 ± 0.12 | 0.936 ± 0.16 | 0.995 ± 0.12 | 0.957 ± 0.074 | 0.883 ± 0.092 | 0.897 ± 0.032 | 0.951 ± 0.024 | 0.917 ± 0.05 | 1.04 ± 0.14 | 1.08 ± 0.053 | 0.503 ± 0.18 | 0.097 ± 0.016 |
| BT549 BREAST | 1.1 ± 0.12 | 1.08 ± 0.085 | 1.05 ± 0.1 | 1.12 ± 0.13 | 1.09 ± 0.043 | 1.26 ± 0.1 | 1.09 ± 0.07 | 1.19 ± 0.14 | 1.05 ± 0.043 | 1 ± 0.19 | 1.02 ± 0.064 | 0.957 ± 0.052 | 0.732 ± 0.14 | 0.575 ± 0.062 | 0.194 ± 0.067 | 0.148 ± 0.046 |
| CAL120 BREAST | 0.948 ± 0.059 | 0.963 ± 0.033 | 0.99 ± 0.048 | 0.96 ± 0.075 | 0.976 ± 0.075 | 0.988 ± 0.016 | 0.988 ± 0.053 | 0.989 ± 0.025 | 0.961 ± 0.064 | 0.963 ± 0.028 | 0.952 ± 0.06 | 0.889 ± 0.068 | 0.667 ± 0.057 | 0.482 ± 0.036 | 0.14 ± 0.0021 | 0.121 ± 0.0033 |
| VP229 BREAST | 1.18 ± 0.11 | 1.18 ± 0.15 | 1.07 ± 0.17 | 1.23 ± 0.06 | 1.12 ± 0.073 | 1.26 ± 0.21 | 1.15 ± 0.15 | 1.15 ± 0.16 | 1.07 ± 0.16 | 1.08 ± 0.19 | 1.17 ± 0.028 | 1.14 ± 0.22 | 1.04 ± 0.033 | 0.891 ± 0.12 | 0.233 ± 0.082 | 0.127 ± 0.022 |
